Source: patent US8394786B2, “Quinazoline derivatives” (Janssen Pharmaceutica N.V., priority 2003, dated 2013)

Legend:
[1] = system: SKOV3 cells; experiment: Serum starved proliferation assay on the ovarian carcinoma SKOV3 cells (C3); assay type: cell-based; details: EGF stimulated (100 ng/ml, 72 hours, serum free) or 72 hours with compounds, MTT cell viability assay; for IC50: Homo sapiens, SK-OV-3, 72 h, read-out: SKOV3 cell (C3): pIC50 (converted)
Description: The ovarian carcinoma cell line (SKOV3) was used in an epidermal growth factor stimulated cell proliferation assay, to assess the inhibitory effect of the compounds on EGF in whole cells.
In a first step the SKOV3 cells were incubated for 24 hours in the presence of 10% FCS serum. In the second step the cells were incubated with the compounds to be tested in a serum free condition (37° C. and 5% (v/v) CO2) and subsequently stimulated for 72 hours with EGF at a final concentration of 100 ng/ml. The effect of the compounds on the EGF stimulation was finally assessed in a standard MTT cell viability assay.
Alternatively, the SKOV3 cells were incubated for 24 hours in the presence of 10% FCS serum. In the second step the cells were incubated for 72 hours with the compounds to be tested and the effect of the compounds on cell proliferation was finally assessed in a standard MTT cell viability assay.

[2] = target: EGFR (Homo sapiens, UniProt P00533); experiment: In vitro inhibition of EGFR, Flash Plate or glass-fiber filter technology (C2); assay type: biochemical; design: 0.5 μg EGFR-kinase domain/well; details: EGFR-kinase domain, 5.0 μM unlabeled ATP, read-out: Kinase activity.(C2): pIC50 (converted)
EGFR, sequence (P00533 712-979 limits assumed): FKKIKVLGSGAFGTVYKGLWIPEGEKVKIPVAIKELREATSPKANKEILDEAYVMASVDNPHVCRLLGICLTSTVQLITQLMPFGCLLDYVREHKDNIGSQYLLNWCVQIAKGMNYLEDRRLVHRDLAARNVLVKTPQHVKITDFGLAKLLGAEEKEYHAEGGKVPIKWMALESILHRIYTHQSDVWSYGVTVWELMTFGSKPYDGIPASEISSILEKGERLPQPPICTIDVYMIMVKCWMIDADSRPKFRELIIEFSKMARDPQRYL
Description: The in vitro inhibition of EGFR was assessed using either the Flash Plate technology or the glass-fiber filter technology as described by Davies, S. P. et al., Biochem J. (2000), 351; p. 95-105. The Flash Plate technology is generally described by B. A. Brown et al. in High Throughput Screening (1997), p. 317-328. Editor(s): Devlin, John P. Publisher: Dekker, New York, N.Y.
In the Flash Plate EGFR kinase reaction assay, a kinase substrate consisting of biotinylated poly(L-glutamic acid-L-tyrosine) (poly(GT)biotin), is incubated with the aforementioned protein in the presence of (^33P) radiolabeled ATP. (^33P) phosphorylation of the substrate is subsequently measured as light energy emitted using a streptavidin-coated Flash Plate (PerkinElmer Life Sciences) by trapping and quantifying the binding of the biotin tagged and radiolabeled substrate.
The EGFR kinase reaction is performed at 30° C. for 60 minutes in a 96-well microtiter FlashPlate (PerkinElmer Life Sciences). For each of the tested compounds a full dose response 1·10^−6M to 1·10^−10M has been performed. IRESSA° and Tarceva™ (erlotinib) were used as reference compounds. The 100 μl reaction volume contains 54.5 mM TrisHCl pH 8.0, 10 mM MgCl2, 100 μM Na3VO4, 5.0 μM unlabeled ATP, 1 mM DTT, 0.009% BSA, 0.8 μCi AT^33P, 0.35 μg/well poly(GT)biotin and 0.5 μg EGFR-kinase domain/well.
The reaction is stopped by aspirating the reaction mixture and washing the plate 3× with 200 μl wash/stop buffer (PBS+100 mM EDTA). After the final wash step 200 μl of wash/stop buffer was added to each well and the amount of phosphorylated (^33P) Poly(GT)biotin determined by counting (30 sec/well) in a microtiterplate scintillation counter.
In the glass-fiber filter technology EGFR kinase reaction assay, a kinase substrate consisting of poly(L-glutamic acid-L-tyrosine) (poly(GT)), is incubated with the aforementioned protein in the presence of (^33P) radiolabeled ATP. (^33P) Phosporylation of the substrate is subsequently measured as radioactivity bound on a glassfiber-filter.
The EGFR kinase reaction is performed at 25° C. for 10 minutes in a 96-well microtiterplate. For each of the tested compounds a full dose response 1·10^−6M to 1·10^−10M has been performed. IRESSA° and Tarceva™ (erlotinib) were used as reference compounds. The 25 μl reaction volume contains 60 mM TrisHCl pH 7.5, 3 mM MgCl2, 3 mM Mn Cl2, 3 μM Na3VO4, 50 μg/ml PEG20000, 5.0 μM unlabeled ATP, 1 mM DTT, 0.1 μCi AT^33P, 62.5 ng/well poly(GT) and 0.5 μg EGFR-kinase domain/well.
The reaction is stopped by adding 5 μl of a 3% phosphoric acid solution. 10 μl of the reaction mixture is then spotted onto a Filtermat A filter (Wallac) and washed 3 times for 5 min. in 75 mM phosphoric acid and 1 time for 5 min. in methanol prior to drying and quantification on the Typhoon (Amersham) using a LE phosphorage storage screen.

| SKOV3 cell (C3): pIC50 [1] | IC50 [2] | IC50 [1] | SMILES |
| --- | --- | --- | --- |
| 7.6 | 158 nM | – | COc1cc2ncnc3c2cc1OCCCC=CCCCC(=O)NCc1ccc(Cl)cc1N3 [Compound 105, 4,6-ethanediylidenepyrimido[4,5-b][6,1,16]benzoxadiazacyclononadecin-16(17H)-one, 21-chloro-8,9,10,13,14,15,18,23-octahydro-24-methoxy-] |
| – | 25.1 nM | 100 nM | COc1cc2ncnc3c2cc1OCCCC(=O)NC(C)C(=O)NCc1ccc(Cl)cc1N3 (stereo not drawn) [Compound 131, 4,6-ethanediylidenepyrimido[4,5-b][6,1,11,14]benzoxatriazacycloheptadecine-11,14(8H,15H)-dione, 19-chloro-9,10,12,13,16,21-hexahydro-22-methoxy-13-methyl-] |
| – | 1000 nM | 1580 nM | COc1cc2ncnc3c2cc1OCC(=O)NC(C)C(=O)NCCc1ccc(Cl)cc1N3 (stereo not drawn) [Compound 119, 4,6-ethanediylidene-8H-pyrimido[4,5-b][6,1,9,12]benzoxatriazacyclohexadecine-9,12-dione, 18-chloro-10,11,13,14,15,20-hexahydro-21-methoxy-11-methyl-] |
| – | 158 nM | 10000 nM | COc1cc2ncnc3c2cc1OCCN(C(=O)CN1CCOC(CO)C1)CC(=O)NCCCc1ccc(Cl)cc1N3 (stereo not drawn) [Compound 45, 4,6-ethanediylidenepyrimido[4,5-b][6,1,9,12]benzoxatriazacycloheptadecin-12(13H)-one, 19-chloro-8,9,10,11,14,15,16,21-octahydro-10-[[2-(hydroxymethyl)-4-morpholinyl]acetyl]-22-methoxy-] |
| 6.5 | 2000 nM | – | COc1cc2ncnc3c2cc1OCCCC=CCC(NC(=O)OC(C)(C)C)C(=O)NCc1ccc(Cl)cc1N3 (stereo not drawn) [Compound 109, carbamic acid, (20-chloro-9,10,13,14,15,16,17,22-octahydro-23-methoxy-15-oxo-4,6-ethanediylidene-8H-pyrimido[4,5-b][6,1,15]benzoxadiazacyclooctadecin-14-yl)-, 1,1-dimethylethyl ester] |
| – | 10 nM | 200 nM | CCC(C)C1NC(=O)CCCOc2cc3c(ncnc3cc2OC)Nc2cc(Cl)ccc2CNC1=O (stereo not drawn) [Compound 128, 4,6-ethanediylidenepyrimido[4,5-b][6,1,11,14]benzoxatriazacycloheptadecine-11,14(8H,15H)-dione, 19-chloro-9,10,12,13,16,21-hexahydro-22-methoxy-13-(1-methylpropyl)-] |
| – | 251 nM | 31.6 nM | COc1cc2ncnc3c2cc1OCCCCNC(=O)CNCc1ccc(Cl)cc1N3 [Compound 101, 4,6-ethanediylidenepyrimido[4,5-b][6,1,11,14]benzoxatriazacycloheptadecin-13(8H)-one, 19-chloro-9,10,11,12,14,15,16,21-octahydro-22-methoxy-] |
| – | 1580 nM | 10000 nM | COc1cc2ncnc3c2cc1OCC1CCCN(CC(=O)NCCCc2ccc(Cl)cc2N3)C1 (stereo not drawn) [Compound 56, 14H-4,6-ethanediylidene-9,13-methano-8H-pyrimido[4,5-b][6,1,12,15]benzoxatriazacycloeicosin-15(16H)-one, 22-chloro-9,10,11,12,17,18,19,24-octahydro-26-methoxy-] |
| – | – | 10000 nM | COc1cc2ncnc3c2cc1OCC(=O)NCC(=O)NCc1ccccc1N3 [Compound 156, 4,6-ethanediylidenepyrimido[4,5-b][6,1,9,12]benzoxatriazacyclopentadecine-9,12(8H,13H)-dione, 10,11,14,19-tetrahydro-20-methoxy-] |
| – | 200 nM | 631 nM | COc1cc2ncnc3c2cc1OCCCC(=O)NC(C(C)O)C(=O)NCc1ccc(Cl)cc1N3 (stereo not drawn) [Compound 146, 4,6-ethanediylidenepyrimido[4,5-b][6,1,11,14]benzoxatriazacycloheptadecine-11,14(8H,15H)-dione, 19-chloro-9,10,12,13,16,21-hexahydro-13-(1-hydroxyethyl)-22-methoxy-] |
| – | 3980 nM | – | COc1cc2ncnc3c2cc1OCCCC=CCC(NC(=O)OC(C)(C)C)C(=O)NCc1ccc(Cl)cc1N3 (stereo not drawn) [Compound 110, carbamic acid, (20-chloro-9,10,13,14,15,16,17,22-octahydro-23-methoxy-15-oxo-4,6-ethanediylidene-8H-pyrimido[4,5-b][6,1,15]benzoxadiazacyclooctadecin-14-yl)-, 1,1-dimethylethyl ester] |
| – | 2000 nM | 631 nM | COc1cc2ncnc3c2cc1OCCCCC(=O)NC(Cc1ccccc1)C(=O)NCc1ccc(Cl)cc1N3 (stereo not drawn) [Compound 138, 4,6-ethanediylidene-8H-pyrimido[4,5-b][6,1,12,15]benzoxatriazacyclooctadecine-12,15(16H)-dione, 20-chloro-9,10,11,13,14,17,22-heptahydro-23-methoxy-14-(phenylmethyl)-] |
| – | – | 10000 nM | COc1cc2ncnc3c2cc1OCC(=O)NC(C)(C)C(=O)NCc1ccc(Cl)cc1N3 [Compound 132, 4,6-ethanediylidenepyrimido[4,5-b][6,1,9,12]benzoxatriazacyclopentadecine-9,12(8H,13H)-dione, 17-chloro-10,11,14,19-tetrahydro-20-methoxy-11,11-dimethyl-] |
| – | 316 nM | 1000 nM | COc1cc2ncnc3c2cc1OCCCC(=O)NCCC(=O)NCc1ccc(Cl)cc1N3 [Compound 155, 4,6-etheno-8H-pyrimido[4,5-b][6,1,11,15]benzoxatriazacyclooctadecine-11,15(12H,16H)-dione, 20-chloro-9,10,13,14,17,22-hexahydro-23-methoxy-] |
| – | 1580 nM | 10000 nM | COc1cc2ncnc3c2cc1OCCCCCCC(NC(=O)OC(C)(C)C)C(=O)NCc1ccc(Cl)cc1N3 (stereo not drawn) [Compound 111, carbamic acid, (20-chloro-9,10,11,12,13,14,15,16,17,22-decahydro-23-methoxy-15-oxo-4,6-ethanediylidene-8H-pyrimido[4,5-b][6,1,15]benzoxadiazacyclooctadecin-14-yl)-, 1,1-dimethylethyl ester] |
| – | – | 398 nM | COc1cc2ncnc3c2cc1OCCN(C(=O)CN1CCN(C)CC1)CC(=O)NCCCc1ccc(Cl)cc1N3 [Compound 51, 4,6-ethanediylidenepyrimido[4,5-b][6,1,9,12]benzoxatriazacycloheptadecin-12(13H)-one, 19-chloro-8,9,10,11,14,15,16,21-octahydro-22-methoxy-10-[(4-methyl-1-piperazinyl)acetyl]-] |
| – | – | 10000 nM | COc1cc2ncnc3c2cc1OCC(=O)NCCC(=O)NCc1ccccc1N3 [Compound 157, 4,6-ethanediylidene-8H-pyrimido[4,5-b][6,1,9,13]benzoxatriazacyclohexadecine-9,13(10H,14H)-dione, 11,12,15,20-tetrahydro-21-methoxy-] |
| – | – | 10000 nM | CCC(C)C1NC(=O)COc2cc3c(ncnc3cc2OC)Nc2ccccc2CNC1=O (stereo not drawn) [Compound 124, 4,6-ethanediylidenepyrimido[4,5-b][6,1,9,12]benzoxatriazacyclopentadecine-9,12(8H,13H)-dione, 10,11,14,19-tetrahydro-20-methoxy-11-(1-methylpropyl)-] |
